pIC50, pKd: −log10 of the molar value. The source made the active and inactive calls. The rule behind the calls is not given here.
Assays:
MIA PaCa-2 = experiment: Cytotoxicity against human MIA PaCa-2 cells assessed as inhibition of cell growth by CellTiter-Glo assay; format: functional, cell-based
Quadruplex DNA [1] = experiment: Binding affinity to human telomeric G-quadruplex HT21 DNA assessed as increase in fluorescence intensity at 5 uM by fluorescence emission spectra analysis; format: nucleic-acid assay
Quadruplex DNA [2] = experiment: Binding affinity to human telomeric G-quadruplex HT21 DNA assessed as dissociation constant by fluorescence titration spectra analysis; format: nucleic-acid assay
Quadruplex DNA [3] = experiment: Binding affinity to human telomeric G-quadruplex HT21 DNA assessed as increase in CD signal at 15 uM at 290 nm wavelength by circular dichroism spectroscopic analysis; format: nucleic-acid assay
Quadruplex DNA [4] = experiment: Binding affinity to human telomeric G-quadruplex HT21 DNA assessed as increase in CD signal at 15 uM at 235 nm wavelength by circular dichroism spectroscopic analysis; format: nucleic-acid assay
Quadruplex DNA [5] = experiment: Binding affinity to human telomeric G-quadruplex HT21 DNA assessed as increase in CD signal at 15 uM at 250 nm wavelength by circular dichroism spectroscopic analysis; format: nucleic-acid assay

Compound | pIC50 (MIA PaCa-2) | Activity (Quadruplex DNA [1]) | pKd (Quadruplex DNA [2]) | Activity (Quadruplex DNA [3]) | Activity (Quadruplex DNA [4]) | Activity (Quadruplex DNA [5])
O=C1c2ccc3c4c(c(NCCN5CCCC5)cc(c24)C(=O)N1CCCN1CCOCC1)C(=O)N(CCCN1CCOCC1)C3=O | 8.02 |  |  |  |  | 
O=C(CNc1cc2c3c(ccc4c3c1C(=O)N(CCCN1CCOCC1)C4=O)C(=O)N(CCCN1CCOCC1)C2=O)NCC1CCN(c2ccc([N+](=O)[O-])c3nonc23)CC1 | 6.44 | Active | 6.22 |  |  | 
O=C1c2ccc3c4c(c(NCCN5CCN(c6ccc([N+](=O)[O-])c7nonc67)CC5)cc(c24)C(=O)N1CCCN1CCOCC1)C(=O)N(CCCN1CCOCC1)C3=O | 7.11 | Active | 5.76 | Active | inactive | inactive
O=C1c2ccc3c4c(c(NCC5CCN(c6ccc([N+](=O)[O-])c7nonc67)CC5)cc(c24)C(=O)N1CCCN1CCOCC1)C(=O)N(CCCN1CCOCC1)C3=O | 6.44 | inactive |  |  |  | 

From ChEMBL document CHEMBL6127016, “Design and synthesis of dual functional NBD-fluorophore-incorporated naphthalene diimide derivatives as G-quadruplex ligands” (Bioorg Med Chem Lett, 2024)
